According to patent US4380512A, “2β-Chloromethyl-2α-methylpenam-3α-carboxylic acid sulfone and salts and esters thereof” (Bristol-Myers Company, priority 1981, dated 1983):
≈ marks a conversion by molar mass, not a printed value. Structures can show the parent of a compound that is named as a salt. Where two headings read alike, the source gives them in different places.

What was measured:
β-lactamase enzyme RTEM = settings: cited from earlier work
B. thetaiotaomicron = assay: Anti-Bacteroides activity, MIC by agar dilution (Table 2); type: cell-based; settings: A22279, beta-lactamase +
Procedure: *Minimum inhibitory concentration (MIC) determined by the agar dilution
method using 50X dilutions of 24 hour cultures as inocula dispensed by th
Steer's inoculator. Assay medium composed of Brucella Agar plus 5% laked
sheep blood and 10 mcg/ml vitamin K.

Bacteroides species = assay: as above; type: cell-based
in vivo [1] = settings: mouse, po
Text: Compounds were solubilized in propylene glycol, except for the Hetacillin

[2] = mouse, in vivo, po, 50 mg/kg
in vivo [3] = settings: mouse, po, 50 mg/kg; for concentration at 0.5 h / concentration at 1 h / concentration at 2 h: Blood Level
C. freundii = assay: Antibacterial activity of ceforanide alone and with BL-P2013, MIC (Table 11); type: cell-based; settings: Citrobacter freundii
Text: (§1) ^a Geometric mean value where applicable.

Citrobacter sp. = assay: as above; type: cell-based
Text: as §1

E. aerogenes = assay: as above; type: cell-based
Text: as §1

E. cloacae = assay: as above; type: cell-based; settings: Enterobacter cloacae
Text: as §1

M. morganii = assay: as above; type: cell-based; settings: Morganella morganii, geometric mean
Text: as §1

P. aeruginosa = assay: as above; type: cell-based; settings: Pseudomonas aeruginosa
Text: as §1

P. mirabilis = assay: as above; type: cell-based; settings: Proteus mirabilis
Text: as §1

P. rettgeri = assay: as above; type: cell-based; settings: Providencia rettgeri
Text: as §1

P. stuartii = assay: as above; type: cell-based; settings: Providencia stuartii
Text: as §1

P. vulgaris = assay: as above; type: cell-based; settings: Proteus vulgaris
Text: as §1

S. faecalis = assay: as above; type: cell-based; settings: Enterococcus faecalis
Text: as §1

S. marcescens = assay: as above; type: cell-based
Text: as §1

[4] = man, oral; cited from earlier work
E. coli = assay: Therapeutic efficacy as mutual pro-drugs or mixtures, oral, infected mice (Table 12); type: in vivo; settings: Escherichia coli, pro-drugs and their mixtures 50:38, read-out: PD50/Treatment
Procedure: (§2) ^a Treatment schedule: Mice were infected i.p. with about 5 ×
(§3) 10^6 organisms of E. coli in 4% mucin and 1 × 10^9 of S.
(§4) aureus in 2% mucin. Drugs were administered p.o. at 0 and 2 hour
(§5) ^b Mutual ProDrugs: BLP2048 (hetacillin: BLP2013) and BLP2049
(§6) (hetaamoxicillin: BLP2013) as well as their respective mixtures were
(§7) administered in a 50:38 ratio. PD50 values are averages of 2 to 3
(§8) tests for E. coli and 1 to 2 tests for S. aureus.
(§9) averages of 1 to 2 tests for E. coli and a single test for S. aureus.

S. aureus = assay: as above; type: in vivo; settings: Staphylococcus aureus, pro-drugs and their mixtures 50:38, read-out: PD50/Treatment
Procedure: as §2, §3, §4, §5, §6, §7, §8, §9

E. coli A9675 = assay: Therapeutic efficacy of BL-P2043, BL-P2044 and components, oral, infected mice (Table 13); type: in vivo; settings: Escherichia coli, po; E. coli A9675, p.o.; pro-drugs and mixtures 50:38; read-out: PD50/Treatment
[5] = Blood levels and half-life of BL-P2024 after oral administration to mice (Table 5); type: in vivo; settings: 100 mg/kg oral
[6] = tested on: β-lactamase-producing strains; settings: in vitro and in vivo; cited from earlier work

CC1(C)[C@H](C(=O)O)N2C(=O)[C@@H](Br)[C@H]2S1(=O)=O [(2S,5R,6S)-6β-Bromo-3,3-dimethyl-7-oxo-4-thia-1-azabicyclo[3.2.0]heptane-2-carboxylic acid, S,S-dioxide]
inhibition of β-lactamase (β-lactamase enzyme RTEM): inhibit the action of the β-lactamase enzyme RTEM

CC1(C)S[C@@H]2[C@H](NC(=O)[C@H](N)c3ccc(O)cc3)C(=O)N2[C@H]1C(=O)O [Amoxicillin, reference compound]
MIC (B. thetaiotaomicron): 16 µg/mL
MIC (Bacteroides species; A20929, beta-lactamase +): 16 µg/mL
MIC (Bacteroides species; A20931, beta-lactamase +): 16 µg/mL
MIC (Bacteroides species; A21954, beta-lactamase +): 16 µg/mL
AUC (in vivo [1]; 50 mg/kg): 9500 ng·h/mL
concentration at 0.5 h (in vivo [1]; 50 mg/kg): 7000 ng/mL
concentration at 1 h (in vivo [1]; 50 mg/kg): 5000 ng/mL
concentration at 2 h (in vivo [1]; 50 mg/kg): 2200 ng/mL
Blood Level ([2]; 0.5 h): 7000 ng/mL
Blood Level ([2]; 1 h): 5000 ng/mL
Blood Level ([2]; 2 h): 2200 ng/mL
AUC (in vivo [3]): 15400 ng·h/mL
concentration at 0.5 h (in vivo [3]): 11000 ng/mL
concentration at 1 h (in vivo [3]): 9000 ng/mL
concentration at 2 h (in vivo [3]): 3100 ng/mL

NCc1ccccc1CC(=O)N[C@@H]1C(=O)N2C(C(=O)O)=C(CSc3nnnn3CC(=O)O)CS[C@H]12 [Ceforanide]
MIC (C. freundii): > 125 µg/mL
MIC (Citrobacter sp.): > 125 µg/mL
MIC (E. aerogenes; 5 strains, geometric mean): > 125 µg/mL
MIC (E. aerogenes; Klebsiella aerogenes): > 125 µg/mL
MIC (E. aerogenes; Klebsiella aerogenes, 4 strains, geometric mean, read-out: MIC): 3.4 µg/mL (≈ 6.54 µM)
MIC (E. cloacae; 1 strain (first line)): 22.6 µg/mL (≈ 43.5 µM)
MIC (E. cloacae; 1 strain (third line)): > 125 µg/mL
MIC (E. cloacae; 14 strains, geometric mean): > 125 µg/mL
MIC (M. morganii; 8 strains (second line)): > 125 µg/mL
MIC (M. morganii; 8 strains (first line), read-out: MIC): 65 µg/mL (≈ 125 µM)
MIC (P. aeruginosa): 125 µg/mL (≈ 241 µM)
MIC (P. mirabilis; 1 strain): 0.25 µg/mL (≈ 0.481 µM)
MIC (P. mirabilis; 3 strains, geometric mean): 25.4 µg/mL (≈ 48.9 µM)
MIC (P. rettgeri; 1 strain (first line)): 0.06 µg/mL (≈ 0.115 µM)
MIC (P. rettgeri; 1 strain (second line)): 16 µg/mL (≈ 30.8 µM)
MIC (P. stuartii; 1 strain): 0.35 µg/mL (≈ 0.674 µM)
MIC (P. stuartii; 4 strains, geometric mean): 45 µg/mL (≈ 86.6 µM)
MIC (P. vulgaris): > 125 µg/mL
MIC (P. vulgaris; 1 strain, read-out: MIC): 0.5 µg/mL (≈ 0.962 µM)
MIC (P. vulgaris; 9 strains, geometric mean, read-out: MIC): 85 µg/mL (≈ 164 µM)
MIC (S. faecalis): > 125 µg/mL
MIC (S. marcescens; 6 strains, geometric mean): 125 µg/mL (≈ 241 µM)
MIC (S. marcescens; Serratia marcescens): 125 µg/mL (≈ 241 µM)

CC1(C)S[C@@H]2[C@H](NC(=O)[C@H](N)c3ccccc3)C(=O)N2[C@H]1C(=O)OCOC(=O)[C@@H]1N2C(=O)C[C@H]2S(=O)(=O)C1(C)C [ester 3]
absorption from the gastro-intestinal tract [4]: excellently absorbed from the gastro-intestinal tract
blood and tissue levels of antibiotic and β-lactamase inhibitor [4]: high blood and tissue levels of antibiotic and β-lactamase inhibitor in a balanced ratio
hydrolysis after absorption [4]: hydrolyzed with simultaneous liberation of the active components

CC1(C)SC2C(N3C(=O)C(c4ccccc4)NC3(C)C)C(=O)N2C1C(=O)OCOC(=O)C1N2C(=O)CC2S(=O)(=O)C1(C)CCl [BL-P2048, 2β-Chloromethyl-2α-methyl-1,1-dioxopenam-3-carbonyloxymethyl 6-(D-2,2-dimethyl-5-oxo-4-phenyl-1-imidazolidinyl)penicillanate Hydrochloride]
Blood Level (in vivo [1]; 38 mg/kg, 15 min): 10000 ng/mL
Blood Level (in vivo [1]; 38 mg/kg, 120 min): 900 ng/mL
Blood Level (in vivo [1]; 38 mg/kg, 150 min): 600 ng/mL
Blood Level (in vivo [1]; 50 mg/kg, 15 min): 8000 ng/mL
ED50 (E. coli; E. coli A20649, p.o.): 89 mg/kg
ED50 (E. coli; E. coli A21223, p.o.): 32 mg/kg
ED50 (E. coli; E. coli A-9675, p.o.): 49 mg/kg
ED50 (S. aureus; S. aureus A20379, p.o.): 400 mg/kg
ED50 (S. aureus; S. aureus A-9606, p.o.): 274 mg/kg

CC1(C)SC2C(NC(=O)C(N)c3ccc(O)cc3)C(=O)N2C1C(=O)OCOC(=O)C1N2C(=O)CC2S(=O)(=O)C1(C)CCl (single isomer, unassigned) [BL-P2044, Hydrochloride]
ED50 (E. coli A9675): 25 mg/kg

CC(C)(C)C(=O)OCOC(=O)C1N2C(=O)CC2S(=O)(=O)C1(C)CCl (stereo not drawn) [BL-P2024, Pivaloyloxymethyl 2β-Chloromethyl-2α-methylpenam-3α-carboxylate Sulfone]
Blood Level ([5]; 15 min): 12300 ng/mL
Blood Level ([5]; 30 min): 12200 ng/mL
Blood Level ([5]; 60 min): 9400 ng/mL
Blood Level ([5]; 120 min): 5700 ng/mL

CC1(C)S[C@@H]2[C@H](N=CN3CCCCCC3)C(=O)N2[C@H]1C(=O)OCOC(=O)[C@@H]1N2C(=O)C[C@H]2S(=O)(=O)C1(C)C [ester 4]
absorption from the gastro-intestinal tract [4]: excellently absorbed from the gastro-intestinal tract
blood and tissue levels of antibiotic and β-lactamase inhibitor [4]: high blood and tissue levels of antibiotic and β-lactamase inhibitor in a balanced ratio
hydrolysis after absorption [4]: hydrolyzed with simultaneous liberation of the active components

CC1(C)S[C@@H]2[C@H](NC(=O)[C@H](N)c3ccccc3)C(=O)N2[C@H]1C(=O)O [Ampicillin, reference compound]
AUC (in vivo [1]; 50 mg/kg): 6200 ng·h/mL
concentration at 0.5 h (in vivo [1]; 50 mg/kg): 4000 ng/mL
concentration at 1 h (in vivo [1]; 50 mg/kg): 3300 ng/mL
concentration at 2 h (in vivo [1]; 50 mg/kg): 1700 ng/mL
ED50 (E. coli A9675): > 400 mg/kg
Blood Level ([2]; 0.5 h): 3200 ng/mL
Blood Level ([2]; 1 h): 2600 ng/mL
AUC (in vivo [3]): 6200 ng·h/mL
concentration at 0.5 h (in vivo [3]): 4000 ng/mL
concentration at 1 h (in vivo [3]): 3300 ng/mL
concentration at 2 h (in vivo [3]): 1700 ng/mL

CC1(C)SC2C(NC(=O)C(N)c3ccccc3)C(=O)N2C1C(=O)OCOC(=O)C1N2C(=O)CC2S(=O)(=O)C1(C)CCl [BL-P2043, 6-[(R)-2-Amino-2-phenylacetamido]-3,3-dimethyl-7-oxo-4-thia-1-azabicyclo[3.2.0]heptane-2-carbonyloxymethyl 2β-chloromethyl-2-α-methylpenam-3α-carboxylate sulfone]
ED50 (E. coli A9675): 44 mg/kg

CC1(C)SC2C(N3C(=O)C(c4ccc(O)cc4)NC3(C)C)C(=O)N2C1C(=O)OCOC(=O)C1N2C(=O)CC2S(=O)(=O)C1(C)CCl [BL-P2049, 2β-Chloromethyl-2α-methyl-1,1-dioxopenam-3-carbonyloxymethyl 6-[D-2,2-dimethyl-5-oxo-4-(4-hydroxyphenyl)-1-imidazolidinyl]-penicillanate Hydrochloride]
Blood Level (in vivo [1]; 38 mg/kg, 15 min): 4100 ng/mL
Blood Level (in vivo [1]; 38 mg/kg, 30 min): 4600 ng/mL
Blood Level (in vivo [1]; 38 mg/kg, 60 min): 3100 ng/mL
Blood Level (in vivo [1]; 38 mg/kg, 90 min): 2200 ng/mL
Blood Level (in vivo [1]; 38 mg/kg, 120 min): 1600 ng/mL
Blood Level (in vivo [1]; 38 mg/kg, 150 min): 1200 ng/mL
Blood Level (in vivo [1]; 50 mg/kg, 15 min): 3700 ng/mL
Blood Level (in vivo [1]; 50 mg/kg, 30 min): 4700 ng/mL
Blood Level (in vivo [1]; 50 mg/kg, 60 min): 4700 ng/mL
Blood Level (in vivo [1]; 50 mg/kg, 90 min): 4100 ng/mL
Blood Level (in vivo [1]; 50 mg/kg, 120 min): 3700 ng/mL
Blood Level (in vivo [1]; 50 mg/kg, 150 min): 3300 ng/mL
ED50 (E. coli; E. coli A20649, p.o.): 43 mg/kg
ED50 (E. coli; E. coli A21223, p.o.): 32 mg/kg
ED50 (E. coli; E. coli A-9675, p.o.): 28 mg/kg
ED50 (S. aureus; S. aureus A20379, p.o.): > 400 mg/kg
ED50 (S. aureus; S. aureus A-9606, p.o.): > 374 mg/kg

CC1(C)[C@H](C(=O)O)N2C(=O)C[C@H]2S1(=O)=O [CP-45899]
potentiation of ampicillin [6]: potentiates the in vitro and in vivo activities of ampicillin versus β-lactamase-producing strains
